Measurements: paper PMC4646407, “Tripartite ATP-independent Periplasmic (TRAP) Transporters Use an Arginine-mediated Selectivity Filter for High Affinity Substrate Binding” (The Journal of Biological Chemistry, 2015)

Experiments:
[1] = target: SiaP (SiaP-His6) (Haemophilus influenzae, UniProt P44542, R170K/F193W); conditions: 50 mM Tris/HCl, pH 8.0; 0.5 μM protein
[2] = target: T1, SiaP (SiaP-His6) (Haemophilus influenzae, UniProt P44542); experiment: intrinsic tyrosine fluorescence titration; type: binding; conditions: 50 mM Tris/HCl, pH 8.0; 0.05 μM protein
T1 construct: C-terminal His6 tag; expressed in E. coli BL21(DE3) pLysS (pET21b, pAH16) with native signal peptide, purified from periplasm
T1 sequence (P44542 24-329): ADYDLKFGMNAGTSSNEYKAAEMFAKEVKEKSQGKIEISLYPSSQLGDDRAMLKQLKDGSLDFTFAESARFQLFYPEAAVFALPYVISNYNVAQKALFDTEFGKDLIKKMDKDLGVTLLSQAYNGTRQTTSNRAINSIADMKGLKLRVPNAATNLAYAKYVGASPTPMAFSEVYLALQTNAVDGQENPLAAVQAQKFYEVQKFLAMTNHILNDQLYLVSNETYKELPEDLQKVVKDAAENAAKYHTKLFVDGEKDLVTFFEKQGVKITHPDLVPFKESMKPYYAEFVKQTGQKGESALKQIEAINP

[3] = target: SiaP (SiaP-His6) (Haemophilus influenzae, UniProt P44542, F193W); conditions: 50 mM Tris/HCl, pH 8.0
Sequence of SiaP (SiaP-His6) (Haemophilus influenzae, UniProt P44542, F193W) (P44542 24-329 F193W): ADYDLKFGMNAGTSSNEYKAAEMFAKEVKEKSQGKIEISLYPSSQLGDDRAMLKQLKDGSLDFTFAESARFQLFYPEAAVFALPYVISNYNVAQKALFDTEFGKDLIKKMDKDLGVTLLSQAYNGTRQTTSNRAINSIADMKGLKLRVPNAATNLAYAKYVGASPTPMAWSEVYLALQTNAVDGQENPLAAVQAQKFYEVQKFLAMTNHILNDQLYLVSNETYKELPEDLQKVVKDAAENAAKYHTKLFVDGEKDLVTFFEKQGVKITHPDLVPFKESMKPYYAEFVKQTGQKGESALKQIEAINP

Sequence of SiaP (SiaP-His6) (Haemophilus influenzae, UniProt P44542, R170K/F193W) (P44542 24-329 R170K/F193W): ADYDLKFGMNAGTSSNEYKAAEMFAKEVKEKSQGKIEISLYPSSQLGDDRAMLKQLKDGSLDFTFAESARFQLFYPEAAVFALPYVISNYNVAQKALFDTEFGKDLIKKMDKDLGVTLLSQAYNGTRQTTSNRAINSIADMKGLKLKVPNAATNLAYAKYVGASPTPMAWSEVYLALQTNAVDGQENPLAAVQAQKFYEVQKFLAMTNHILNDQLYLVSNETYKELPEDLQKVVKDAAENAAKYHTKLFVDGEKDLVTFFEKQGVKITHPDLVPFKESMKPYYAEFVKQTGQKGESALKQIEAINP

How did the Kd [1] turn out when `CC(=O)N[C@H]1[C@H]([C@H](O)[C@H](O)CO)OC(O)(C(=O)O)C[C@@H]1O` (stereo partly drawn) [Neu5Ac] was run?
The Kd was 38700 ± 8300 µM.

And the Kd [2]?
The Kd was 0.14 ± 0.04 µM.

And the Kd [3]?
The Kd was 1.21 ± 0.03 µM.
